Values of other authors as cited in patent publication US9403744B2, “Process for the production of alkyl ethers by the etherification of isobutene” (SAIPEM S.p.A., priority 2006, dated 2016).

Details: in water

SMILES	Solubility in H2O [w %]
CCOC(C)(C)C [ETBE, ethyl ter-butyl ether]	1.2
CCC(C)(C)OC [TAME, methyl ter-amyl ether]	1.1
